Assays:
WT α1A-AR = biological target: T1, WT α1A-AR (Homo sapiens, UniProt P35348); type: cell-based; settings: inverse agonist; 100 nM
T1 construct: gene ADRA1A; wild type, pcDNA3.1, expressed in COS-7 cells
T1 sequence (P35348 1-466): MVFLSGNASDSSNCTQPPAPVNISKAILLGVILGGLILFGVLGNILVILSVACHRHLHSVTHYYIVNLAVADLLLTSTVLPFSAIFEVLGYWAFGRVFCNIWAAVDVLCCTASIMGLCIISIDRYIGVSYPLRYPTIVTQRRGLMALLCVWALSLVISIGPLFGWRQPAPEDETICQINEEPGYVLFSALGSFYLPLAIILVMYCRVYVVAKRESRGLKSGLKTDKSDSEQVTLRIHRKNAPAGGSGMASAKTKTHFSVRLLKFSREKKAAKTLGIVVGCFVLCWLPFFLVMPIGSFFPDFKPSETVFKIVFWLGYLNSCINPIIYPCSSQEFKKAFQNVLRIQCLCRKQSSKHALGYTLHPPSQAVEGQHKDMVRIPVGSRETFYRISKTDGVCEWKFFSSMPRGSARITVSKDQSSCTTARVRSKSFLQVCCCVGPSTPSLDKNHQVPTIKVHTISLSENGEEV

[1] = biological target: T2, α1A-AR-A4 (and its variants α1A-AR-A4 (L312F), α1A-AR-A4-active) (Homo sapiens, UniProt P35348, C14S/T15I/L36I/I65V/N67Y/L80M/F86Y/G127A/G143A/W151F/E171V/F312L/N322K/P327L/S329Y); assay: QAPB competition binding, purified immobilised receptor (KingFisher); settings: 10 nM QAPB, 20 mM HEPES pH 7.5, 100 mM NaCl, 0.02% DDM, 22 °C, 2 h
T2 construct: gene ADRA1A; thermostabilised, C-terminus truncated at Ser351 plus A and His10
T2 sequence (P35348 2-351 C14S/T15I/L36I/I65V/N67Y/L80M/F86Y/G127A/G143A/W151F/E171V/F312L/N322K/P327L/S329Y): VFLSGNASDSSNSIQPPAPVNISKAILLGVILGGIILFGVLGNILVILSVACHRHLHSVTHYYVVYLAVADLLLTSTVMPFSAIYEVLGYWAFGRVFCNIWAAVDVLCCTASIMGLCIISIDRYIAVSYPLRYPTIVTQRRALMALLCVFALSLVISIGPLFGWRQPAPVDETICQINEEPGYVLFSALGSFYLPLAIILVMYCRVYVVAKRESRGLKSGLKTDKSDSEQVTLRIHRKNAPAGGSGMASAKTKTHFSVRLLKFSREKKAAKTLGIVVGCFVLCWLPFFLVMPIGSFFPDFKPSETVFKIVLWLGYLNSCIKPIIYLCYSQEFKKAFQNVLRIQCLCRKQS

| Compound | NanoBiT Gq split-luciferase assay, COS-7 (WT α1A-AR) | Ki [1] [nM] |
| --- | --- | --- |
| COc1cc2nc(N3CCN(C(=O)c4ccco4)CC3)nc(N)c2cc1OC [Prazosin] | inverse agonism of prazosin, WB-4101, phentolamine and silodosin at WT α1A-AR-expressing COS-7 cells |  |
| C[C@H](Cc1cc2c(c(C(N)=O)c1)N(CCCO)CC2)NCCOc1ccccc1OCC(F)(F)F [Silodosin] |  | 8.4 ± 1.9 |
| COc1cccc(OC)c1OCCNCC1COc2ccccc2O1 (stereo not drawn) [WB-4101] |  | 7.6 ± 3.4 |
